Test results as given in ChEMBL document CHEMBL1137625, “Phenylpiperidine-benzoxazinones as urotensin-II receptor antagonists: synthesis, SAR, and in vivo assessment” (Bioorg Med Chem Lett, 2007).
Calls of active or inactive are those of the source. The calls are words filed in the database; no cut-off is given here.

How the values were obtained:
[1] = target: T1, Urotensin-2 receptor (Homo sapiens, UniProt Q9UKP6); assay: Displacement of [125I]U2 from human UT receptor in RMS13 cells after 2.5 hrs; type: cell-based
T1 sequence (Q9UKP6 whole entry): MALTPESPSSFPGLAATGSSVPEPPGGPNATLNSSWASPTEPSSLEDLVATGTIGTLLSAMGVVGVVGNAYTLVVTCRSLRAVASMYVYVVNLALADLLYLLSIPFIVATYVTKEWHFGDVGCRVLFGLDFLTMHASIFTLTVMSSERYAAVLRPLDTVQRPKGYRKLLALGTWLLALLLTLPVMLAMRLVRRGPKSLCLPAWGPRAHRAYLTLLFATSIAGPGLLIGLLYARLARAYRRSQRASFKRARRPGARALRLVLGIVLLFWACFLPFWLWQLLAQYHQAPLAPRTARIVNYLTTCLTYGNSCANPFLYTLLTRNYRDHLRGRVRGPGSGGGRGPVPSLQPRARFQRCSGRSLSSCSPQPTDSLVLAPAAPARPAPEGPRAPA

[2] = target: T2, Urotensin-2 receptor (Rattus norvegicus, UniProt P49684); assay: Antagonist activity at rat UT receptor transfected in CHOK1 cells assessed as calcium mobilization by FLIPR method; type: functional, cell-based, CHO-K1
T2 sequence (P49684 whole entry): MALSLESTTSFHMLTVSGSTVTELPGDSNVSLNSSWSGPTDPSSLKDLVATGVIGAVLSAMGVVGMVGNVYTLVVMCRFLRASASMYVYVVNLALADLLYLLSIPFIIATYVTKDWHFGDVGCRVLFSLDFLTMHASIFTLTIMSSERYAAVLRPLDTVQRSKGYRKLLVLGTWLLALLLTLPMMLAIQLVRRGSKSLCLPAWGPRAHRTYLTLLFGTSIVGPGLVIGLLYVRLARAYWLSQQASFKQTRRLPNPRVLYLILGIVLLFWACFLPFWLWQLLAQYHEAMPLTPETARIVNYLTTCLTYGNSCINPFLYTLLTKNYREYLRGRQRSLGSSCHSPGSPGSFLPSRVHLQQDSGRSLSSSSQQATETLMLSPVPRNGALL

[3] = test system: Rattus norvegicus; assay: Effect on ear pinna temperature in sc dosed rat; type: functional, organism-based
[4] = Half life in rat at 2 mg/kg, iv; type: ADME, organism-based; set-up: dose 2 mg/kg, route intravenous; conditions: in vivo
[5] = Cmax in rat at 2 mg/kg, iv; type: ADME, organism-based; set-up: dose 2 mg/kg, route intravenous; conditions: in vivo
[6] = test system: Rattus norvegicus; assay: Decrease in U2-induced ear pinna temperature in iv dosed rat; type: functional, organism-based

SMILES | Ki [1] [nM] | IC50 [2] [nM] | also measured
O=C(NCC1CCN(C(=O)c2ccccc2)CC1)c1cc(Cl)ccc1C1CCN(CCN2C(=O)COc3ccccc32)CC1 | 160 |  | 
CC(C)(C)OC(=O)N1CCC(CCNC(=O)c2cc(Cl)ccc2C2CCN(CCN3C(=O)COc4ccccc43)CC2)CC1 | 77 |  | 
O=C1COc2ccccc2N1CCN1CCC(C(=O)NCc2ccccc2)(c2ccccc2)CC1 |  | 43000 | 
CC(C)(C)OC(=O)N1CCN(CCNC(=O)c2cc(Cl)ccc2C2CCN(CCN3C(=O)COc4ccccc43)CC2)CC1 | 65 | 10 | Activity [3]: inactive; half-life [4]: 2.12 h; Cmax [5]: 553 ng/mL; Activity [6]: Active
CN(CCc1ccccc1)C(=O)C1(c2ccccc2)CCN(CCN2C(=O)COc3ccccc32)CC1 |  | 12000 | 
CN(CCCc1ccccc1)C(=O)C1(c2ccccc2)CCN(CCN2C(=O)COc3ccccc32)CC1 |  | 9100 | 
CC(C)(C)CC(=O)N1CCC(CNC(=O)c2cc(Cl)ccc2C2CCN(CCN3C(=O)COc4ccccc43)CC2)CC1 | 27 |  | 
